Results: US20120094998A1, “Oligomer-Protein Tyrosine Kinase Inhibitor Conjugates” (Nektar Therapeutics, priority 2009, published 2012)

Tests used:
FGFR3 = FGFR3 (Homo sapiens, UniProt P22607); experiment: Activity against various protein tyrosine kinases: FGFR3; format: biochemical; settings: for inhibition at 0.01 µM: 10 nM
Description: (§1) Using techniques know those of ordinary skill in the art, compounds were tested for activity against various protein tyrosine kinases.

Flt3 (D835Y) = target: T1, Flt3 (D835Y) (Homo sapiens, UniProt P36888, D835Y); experiment: Activity against various protein tyrosine kinases: Flt3 (D835Y); format: biochemical; settings: for inhibition at 0.01 µM: 10 nM
T1 sequence (P36888 27-993 D835Y): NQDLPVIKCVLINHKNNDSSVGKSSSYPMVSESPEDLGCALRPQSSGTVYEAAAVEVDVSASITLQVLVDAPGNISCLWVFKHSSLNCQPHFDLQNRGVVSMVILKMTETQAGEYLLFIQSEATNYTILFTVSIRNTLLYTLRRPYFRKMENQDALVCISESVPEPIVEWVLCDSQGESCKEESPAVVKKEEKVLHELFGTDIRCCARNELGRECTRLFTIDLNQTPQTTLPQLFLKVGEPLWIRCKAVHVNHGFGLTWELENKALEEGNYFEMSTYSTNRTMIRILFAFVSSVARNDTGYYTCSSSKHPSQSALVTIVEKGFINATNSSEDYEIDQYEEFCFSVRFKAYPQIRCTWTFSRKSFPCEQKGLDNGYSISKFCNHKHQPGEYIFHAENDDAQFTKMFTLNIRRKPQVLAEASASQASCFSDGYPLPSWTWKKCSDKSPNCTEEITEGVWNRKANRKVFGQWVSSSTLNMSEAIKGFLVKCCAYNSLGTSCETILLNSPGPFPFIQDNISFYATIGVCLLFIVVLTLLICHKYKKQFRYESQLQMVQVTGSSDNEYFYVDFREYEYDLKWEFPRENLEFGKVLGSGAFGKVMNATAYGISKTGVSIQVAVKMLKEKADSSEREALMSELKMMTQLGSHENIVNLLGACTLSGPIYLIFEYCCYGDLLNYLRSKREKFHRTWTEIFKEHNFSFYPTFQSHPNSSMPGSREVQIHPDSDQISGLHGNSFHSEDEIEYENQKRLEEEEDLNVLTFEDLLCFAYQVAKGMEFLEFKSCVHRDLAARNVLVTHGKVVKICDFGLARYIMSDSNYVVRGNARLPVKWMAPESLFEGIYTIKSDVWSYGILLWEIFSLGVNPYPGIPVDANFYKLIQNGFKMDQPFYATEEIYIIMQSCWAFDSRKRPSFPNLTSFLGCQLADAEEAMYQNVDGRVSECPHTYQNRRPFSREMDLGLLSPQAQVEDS
Description: as §1

HCK = HCK (Homo sapiens, UniProt P08631); experiment: Activity against various protein tyrosine kinases: HCK; format: biochemical; settings: for inhibition at 0.01 µM: 10 nM
HCK, sequence (P08631 whole entry, species assumed): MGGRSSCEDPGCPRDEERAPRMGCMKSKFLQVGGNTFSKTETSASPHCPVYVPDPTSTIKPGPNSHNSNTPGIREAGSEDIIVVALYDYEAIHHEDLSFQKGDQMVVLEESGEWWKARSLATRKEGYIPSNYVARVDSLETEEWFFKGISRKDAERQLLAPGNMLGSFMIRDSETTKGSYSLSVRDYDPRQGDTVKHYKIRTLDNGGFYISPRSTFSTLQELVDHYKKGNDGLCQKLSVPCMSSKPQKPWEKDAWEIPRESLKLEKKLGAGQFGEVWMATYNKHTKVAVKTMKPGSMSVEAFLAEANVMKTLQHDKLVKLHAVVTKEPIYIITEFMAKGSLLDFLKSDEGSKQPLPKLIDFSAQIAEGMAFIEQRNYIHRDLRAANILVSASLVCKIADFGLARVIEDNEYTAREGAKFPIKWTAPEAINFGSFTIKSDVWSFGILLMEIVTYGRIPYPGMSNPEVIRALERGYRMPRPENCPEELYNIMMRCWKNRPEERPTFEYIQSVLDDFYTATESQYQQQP
Description: as §1

IKK-beta = target: T2, IKK-beta (Homo sapiens, UniProt O14920); experiment: Activity against various protein tyrosine kinases: IKK-beta; format: biochemical; settings: for inhibition at 0.01 µM: 10 nM
T2 sequence (O14920 1-756): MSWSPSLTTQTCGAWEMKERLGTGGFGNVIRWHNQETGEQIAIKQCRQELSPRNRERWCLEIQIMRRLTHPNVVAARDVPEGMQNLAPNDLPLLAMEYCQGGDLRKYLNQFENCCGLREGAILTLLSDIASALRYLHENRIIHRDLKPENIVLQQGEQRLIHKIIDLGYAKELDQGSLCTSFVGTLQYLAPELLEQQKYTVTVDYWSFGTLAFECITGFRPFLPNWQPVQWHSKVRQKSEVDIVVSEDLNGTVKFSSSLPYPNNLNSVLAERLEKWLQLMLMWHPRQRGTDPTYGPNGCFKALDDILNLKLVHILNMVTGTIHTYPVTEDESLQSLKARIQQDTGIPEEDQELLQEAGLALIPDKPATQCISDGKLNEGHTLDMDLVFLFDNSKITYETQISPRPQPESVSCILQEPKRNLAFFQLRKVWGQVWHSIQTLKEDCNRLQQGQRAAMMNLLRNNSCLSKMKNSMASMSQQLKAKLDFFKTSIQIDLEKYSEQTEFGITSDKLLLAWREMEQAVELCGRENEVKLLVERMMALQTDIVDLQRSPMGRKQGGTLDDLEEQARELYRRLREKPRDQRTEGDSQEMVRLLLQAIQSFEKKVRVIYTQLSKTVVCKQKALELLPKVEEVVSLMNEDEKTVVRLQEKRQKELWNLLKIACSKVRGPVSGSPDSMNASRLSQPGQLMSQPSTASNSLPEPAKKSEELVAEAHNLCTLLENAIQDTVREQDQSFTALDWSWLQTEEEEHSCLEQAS
Description: as §1

MAPKAPK2 = MAPKAPK2 (Homo sapiens, UniProt P49137); experiment: Activity against various protein tyrosine kinases: MAPKAPK2; format: biochemical; settings: for inhibition at 0.01 µM: 10 nM
MAPKAPK2, sequence (P49137 whole entry, species assumed): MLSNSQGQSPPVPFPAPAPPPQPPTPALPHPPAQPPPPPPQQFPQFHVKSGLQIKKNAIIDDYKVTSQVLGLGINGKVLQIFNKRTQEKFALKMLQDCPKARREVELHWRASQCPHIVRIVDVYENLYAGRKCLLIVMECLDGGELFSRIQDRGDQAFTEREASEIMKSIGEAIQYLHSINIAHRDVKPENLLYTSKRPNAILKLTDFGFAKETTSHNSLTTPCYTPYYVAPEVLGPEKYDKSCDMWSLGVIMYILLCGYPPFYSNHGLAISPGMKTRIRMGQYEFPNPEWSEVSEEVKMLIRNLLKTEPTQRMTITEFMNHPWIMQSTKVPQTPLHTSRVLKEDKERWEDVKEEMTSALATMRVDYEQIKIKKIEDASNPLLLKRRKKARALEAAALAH
Description: as §1

PDGFR_beta = PDGFR_beta (Homo sapiens, UniProt P09619); experiment: Activity against various protein tyrosine kinases: PDGFR_beta; format: biochemical; settings: for inhibition at 0.01 µM: 10 nM
PDGFR_beta, sequence (P09619 33-1106, species assumed): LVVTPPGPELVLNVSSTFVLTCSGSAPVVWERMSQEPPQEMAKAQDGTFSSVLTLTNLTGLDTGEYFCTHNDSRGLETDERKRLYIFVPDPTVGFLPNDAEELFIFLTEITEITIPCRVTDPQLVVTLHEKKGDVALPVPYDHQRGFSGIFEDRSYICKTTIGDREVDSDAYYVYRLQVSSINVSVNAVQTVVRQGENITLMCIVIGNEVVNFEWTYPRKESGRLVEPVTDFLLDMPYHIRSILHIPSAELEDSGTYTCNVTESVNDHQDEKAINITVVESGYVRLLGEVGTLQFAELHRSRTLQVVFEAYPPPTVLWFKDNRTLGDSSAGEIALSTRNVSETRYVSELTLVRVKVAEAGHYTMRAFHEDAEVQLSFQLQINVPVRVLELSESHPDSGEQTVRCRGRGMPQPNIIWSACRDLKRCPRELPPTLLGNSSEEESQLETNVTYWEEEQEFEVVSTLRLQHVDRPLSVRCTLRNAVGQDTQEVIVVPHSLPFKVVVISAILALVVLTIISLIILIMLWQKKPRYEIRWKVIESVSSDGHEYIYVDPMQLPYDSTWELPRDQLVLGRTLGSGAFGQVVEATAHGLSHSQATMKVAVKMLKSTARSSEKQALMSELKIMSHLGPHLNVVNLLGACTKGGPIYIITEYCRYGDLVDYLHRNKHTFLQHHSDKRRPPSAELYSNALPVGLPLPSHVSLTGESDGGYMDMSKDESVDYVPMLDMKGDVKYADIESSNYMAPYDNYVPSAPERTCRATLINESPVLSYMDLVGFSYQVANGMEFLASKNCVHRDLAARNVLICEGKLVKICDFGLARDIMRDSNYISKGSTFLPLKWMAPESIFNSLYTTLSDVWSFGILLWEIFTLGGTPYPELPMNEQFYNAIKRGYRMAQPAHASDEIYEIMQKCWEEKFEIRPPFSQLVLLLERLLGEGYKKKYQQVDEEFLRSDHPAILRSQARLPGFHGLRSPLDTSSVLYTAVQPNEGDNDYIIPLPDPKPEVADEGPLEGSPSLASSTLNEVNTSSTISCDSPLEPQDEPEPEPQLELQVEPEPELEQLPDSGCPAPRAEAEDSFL
Description: as §1

PKG1-beta = target: T3, PKG1-beta (Homo sapiens, UniProt Q13976); experiment: Activity against various protein tyrosine kinases: PKG1-beta; format: biochemical; settings: for inhibition at 0.01 µM: 10 nM
T3 sequence (Q13976 1-686 isoform Q13976-2): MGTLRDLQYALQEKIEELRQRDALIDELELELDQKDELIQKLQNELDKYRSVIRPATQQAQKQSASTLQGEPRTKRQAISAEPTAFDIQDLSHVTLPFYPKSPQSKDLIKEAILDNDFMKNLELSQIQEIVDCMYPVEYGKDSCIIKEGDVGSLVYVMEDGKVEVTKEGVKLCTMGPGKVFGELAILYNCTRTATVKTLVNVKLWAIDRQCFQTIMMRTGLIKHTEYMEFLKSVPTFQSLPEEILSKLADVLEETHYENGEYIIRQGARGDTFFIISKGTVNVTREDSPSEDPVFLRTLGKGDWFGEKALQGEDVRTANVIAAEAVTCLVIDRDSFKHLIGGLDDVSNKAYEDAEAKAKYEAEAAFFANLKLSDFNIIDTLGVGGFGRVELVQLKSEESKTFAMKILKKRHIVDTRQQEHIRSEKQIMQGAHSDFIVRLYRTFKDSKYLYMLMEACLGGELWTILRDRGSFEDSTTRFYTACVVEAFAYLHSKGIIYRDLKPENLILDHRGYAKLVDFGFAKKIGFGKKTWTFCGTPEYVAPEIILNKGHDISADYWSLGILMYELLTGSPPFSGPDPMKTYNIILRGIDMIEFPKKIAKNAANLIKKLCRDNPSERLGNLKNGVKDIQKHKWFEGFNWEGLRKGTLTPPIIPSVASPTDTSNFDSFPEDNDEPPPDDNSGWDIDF
Description: as §1

ABL = ABL (Homo sapiens, UniProt P00519)
ABL, sequence (P00519 whole entry): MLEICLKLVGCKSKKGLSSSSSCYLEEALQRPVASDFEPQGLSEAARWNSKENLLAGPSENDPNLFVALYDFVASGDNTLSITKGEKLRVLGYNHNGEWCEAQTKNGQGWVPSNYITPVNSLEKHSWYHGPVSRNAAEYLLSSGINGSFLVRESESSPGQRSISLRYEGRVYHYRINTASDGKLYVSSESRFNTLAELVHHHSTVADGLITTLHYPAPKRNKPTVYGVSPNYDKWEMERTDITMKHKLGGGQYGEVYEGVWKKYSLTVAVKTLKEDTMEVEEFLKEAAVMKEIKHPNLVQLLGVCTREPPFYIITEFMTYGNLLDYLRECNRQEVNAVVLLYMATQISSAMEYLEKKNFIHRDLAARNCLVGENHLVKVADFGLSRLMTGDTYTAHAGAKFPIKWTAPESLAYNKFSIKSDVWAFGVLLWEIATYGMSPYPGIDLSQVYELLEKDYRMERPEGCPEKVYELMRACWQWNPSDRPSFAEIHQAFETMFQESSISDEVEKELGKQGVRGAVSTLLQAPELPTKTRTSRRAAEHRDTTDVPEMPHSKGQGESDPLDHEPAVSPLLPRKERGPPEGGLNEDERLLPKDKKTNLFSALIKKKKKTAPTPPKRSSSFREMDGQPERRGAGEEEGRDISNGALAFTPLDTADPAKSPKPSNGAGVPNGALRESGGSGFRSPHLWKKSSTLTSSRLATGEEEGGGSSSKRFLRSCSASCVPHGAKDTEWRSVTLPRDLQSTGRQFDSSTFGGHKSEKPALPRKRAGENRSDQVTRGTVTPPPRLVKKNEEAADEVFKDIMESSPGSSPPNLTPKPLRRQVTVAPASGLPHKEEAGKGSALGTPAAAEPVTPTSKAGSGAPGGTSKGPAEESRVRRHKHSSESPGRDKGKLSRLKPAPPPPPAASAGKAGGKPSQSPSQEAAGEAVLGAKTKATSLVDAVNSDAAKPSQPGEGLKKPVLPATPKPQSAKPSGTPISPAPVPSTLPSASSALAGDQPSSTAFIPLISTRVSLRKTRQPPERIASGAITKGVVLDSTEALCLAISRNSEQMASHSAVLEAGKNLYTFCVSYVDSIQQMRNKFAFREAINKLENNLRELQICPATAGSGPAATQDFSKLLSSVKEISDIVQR

FGFR3, sequence (P22607 23-806, species assumed): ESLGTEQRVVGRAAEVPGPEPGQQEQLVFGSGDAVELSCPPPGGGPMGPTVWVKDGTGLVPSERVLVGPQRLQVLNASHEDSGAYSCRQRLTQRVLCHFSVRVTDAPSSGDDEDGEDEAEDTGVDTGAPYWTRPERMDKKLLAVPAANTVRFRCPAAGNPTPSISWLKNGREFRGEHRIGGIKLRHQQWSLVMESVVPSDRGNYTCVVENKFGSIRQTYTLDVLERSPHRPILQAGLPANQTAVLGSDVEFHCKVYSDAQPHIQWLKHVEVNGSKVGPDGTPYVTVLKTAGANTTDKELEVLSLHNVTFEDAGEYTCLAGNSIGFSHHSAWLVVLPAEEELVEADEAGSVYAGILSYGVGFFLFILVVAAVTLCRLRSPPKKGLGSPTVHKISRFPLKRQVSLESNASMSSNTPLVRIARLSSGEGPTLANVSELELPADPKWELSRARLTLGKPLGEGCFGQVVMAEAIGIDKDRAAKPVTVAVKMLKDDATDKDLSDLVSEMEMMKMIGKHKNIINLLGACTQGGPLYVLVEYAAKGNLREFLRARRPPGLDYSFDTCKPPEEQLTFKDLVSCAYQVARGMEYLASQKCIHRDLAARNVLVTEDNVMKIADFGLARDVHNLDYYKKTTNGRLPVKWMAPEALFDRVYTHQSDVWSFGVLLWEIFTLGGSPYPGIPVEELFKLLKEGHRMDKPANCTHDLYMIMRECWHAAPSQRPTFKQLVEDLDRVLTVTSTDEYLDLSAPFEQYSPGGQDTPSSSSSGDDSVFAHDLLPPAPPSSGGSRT

Structure (SMILES)	inhibition at 0.01 µM (FGFR3) [%]	inhibition at 1 µM (FGFR3) [%]	inhibition at 0.01 µM (Flt3 (D835Y)) [%]	inhibition at 1 µM (Flt3 (D835Y)) [%]	inhibition at 0.01 µM (HCK) [%]	inhibition at 1 µM (HCK) [%]	inhibition at 0.01 µM (IKK-beta) [%]	inhibition at 1 µM (IKK-beta) [%]	inhibition at 0.01 µM (MAPKAPK2) [%]	inhibition at 1 µM (MAPKAPK2) [%]	inhibition at 0.01 µM (PDGFR_beta) [%]	inhibition at 1 µM (PDGFR_beta) [%]	inhibition at 0.01 µM (PKG1-beta) [%]	inhibition at 1 µM (PKG1-beta) [%]	ABL AVG % Activity at 1.0E−09 (ABL) [%]	ABL AVG % Activity at 1.0E−10 (ABL) [%]	ABL AVG % Activity at 1.0E−11 (ABL) [%]	ABL AVG % Activity at 3.0E−09 (ABL) [%]	ABL AVG % Activity at 3.0E−10 (ABL) [%]	ABL AVG % Activity at 3.0E−11 (ABL) [%]
COCCOCCOCCOCCOCCOCCOCCNC(=O)OCCN1CCN(c2cc(Nc3ncc(C(=O)Nc4c(C)cccc4Cl)s3)nc(C)n2)CC1 [mPEG7-NHCOO-Dasatinib]	2	10	3	7	98	99	2	2	3	7	60	100	-3	-3						
COCCOCCOCCNC(=O)OCCN1CCN(c2cc(Nc3ncc(C(=O)Nc4c(C)cccc4Cl)s3)nc(C)n2)CC1 [mPEG3-NHCOO-Dasatinib]	3	11	6	10	98	98	0	1	1	-1	48	99	-2	0	4	81	99	0	47	95
